# *1 amine or outer side, *2 acyl side, *3 side chain or, on linkers, in order; H or OH if unused. Where a SMILES comes first, the peptide text is derived from it. Bridges are numbered along the chain shown (N, C = ends). Side-chain parts run from the residue outwards. [ ]: non-standard residue; d: D form. The star is where a group is joined. γGlu = O=C(O)[C@H](CCC(=O)[*:2])N[*:1]; Palmitoyl = CCCCCCCCCCCCCCCC(=O)*; Aib = CC(C)(N)C(=O)O
# Legend:
# [1] = biological target: T1, GIP receptor (Homo sapiens, UniProt P48546); experiment: cAMP induction, firefly luciferase reporter assay in HEK293 cells co-transfected with GIP receptor; format: cell-based; settings: EC50 (nM) at GIP Receptor
# T1 sequence (P48546 22-466): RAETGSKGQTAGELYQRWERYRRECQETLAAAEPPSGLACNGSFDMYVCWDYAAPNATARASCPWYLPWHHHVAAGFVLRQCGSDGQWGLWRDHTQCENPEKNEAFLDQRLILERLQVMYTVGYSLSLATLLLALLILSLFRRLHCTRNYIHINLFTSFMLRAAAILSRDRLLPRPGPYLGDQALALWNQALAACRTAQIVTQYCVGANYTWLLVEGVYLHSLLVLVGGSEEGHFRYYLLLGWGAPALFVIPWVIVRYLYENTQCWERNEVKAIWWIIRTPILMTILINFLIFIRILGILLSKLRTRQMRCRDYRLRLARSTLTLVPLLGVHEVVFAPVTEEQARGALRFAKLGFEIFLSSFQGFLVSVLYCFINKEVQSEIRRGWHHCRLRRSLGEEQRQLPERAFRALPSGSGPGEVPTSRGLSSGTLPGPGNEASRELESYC
# [2] = biological target: T2, GLP-1 receptor (Homo sapiens, UniProt P43220); experiment: cAMP induction, firefly luciferase reporter assay in HEK293 cells co-transfected with GLP-1 receptor; format: cell-based; settings: EC50 (nM) at GLP-1 Receptor
# T2 construct: expressed in transfected cells; host or cells: HEK293
# T2 sequence (P43220 24-463): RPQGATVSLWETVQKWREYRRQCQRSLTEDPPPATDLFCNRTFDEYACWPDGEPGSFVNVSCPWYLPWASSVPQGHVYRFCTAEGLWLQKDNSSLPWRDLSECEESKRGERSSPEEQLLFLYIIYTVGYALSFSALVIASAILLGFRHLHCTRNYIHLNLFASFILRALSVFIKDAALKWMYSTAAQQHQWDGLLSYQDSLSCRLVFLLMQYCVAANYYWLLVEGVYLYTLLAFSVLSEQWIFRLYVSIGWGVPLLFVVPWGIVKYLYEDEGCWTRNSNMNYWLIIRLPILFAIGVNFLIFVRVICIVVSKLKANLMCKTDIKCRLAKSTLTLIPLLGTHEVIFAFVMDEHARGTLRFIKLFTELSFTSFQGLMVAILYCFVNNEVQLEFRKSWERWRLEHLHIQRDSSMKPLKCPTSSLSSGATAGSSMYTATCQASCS
# Source text: This example describes an exemplary method of testing the biological activity of the peptides of the present disclosures, which method involves assaying cAMP synthesis.
# [3] = Table 4, Example 9, composite of multiple different activity assays
SMILES,"EC50 ([1]; Table 9, Example 15)","EC50 ([2]; Table 9, Example 15)","EC50 [1, 3]","EC50 [2, 3]",also measured
CCCCCCCCCCCCCCCC(=O)NCCCC[C@H](NC(=O)[C@H](CO)NC(=O)[C@@H]1CCCN1C(=O)[C@@H]1CCCN1C(=O)[C@@H]1CCCN1C(=O)[C@H](C)NC(=O)CNC(=O)[C@H](CO)NC(=O)[C@H](CO)NC(=O)[C@@H]1CCCN1C(=O)CNC(=O)CNC(=O)[C@H](C)NC(=O)[C@H](CC(C)C)NC(=O)[C@H](CC(C)C)NC(=O)[C@H](Cc1c[nH]c2ccccc12)NC(=O)[C@H](CC(N)=O)NC(=O)[C@@H](NC(=O)[C@H](Cc1ccccc1)NC(=O)[C@H](CCC(=O)O)NC(=O)C(C)(C)NC(=O)[C@H](C)NC(=O)[C@H](C)NC(=O)[C@H](CCC(N)=O)NC(=O)[C@H](CCCCN)NC(=O)[C@H](CC(=O)O)NC(=O)[C@H](CC(C)C)NC(=O)[C@H](Cc1ccc(O)cc1)NC(=O)[C@@H](NC(=O)[C@H](CO)NC(=O)[C@H](Cc1ccc(O)cc1)NC(=O)[C@H](CC(=O)O)NC(=O)[C@H](CO)NC(=O)[C@@H](NC(=O)[C@H](Cc1ccccc1)NC(=O)[C@@H](NC(=O)CNC(=O)[C@H](CCC(=O)O)NC(=O)C(C)(C)NC(=O)[C@@H](N)Cc1ccc(O)cc1)[C@@H](C)O)[C@@H](C)O)[C@@H](C)CC)C(C)C)C(=O)NCC(N)=O [SEQ ID NO: 139],0.001 nM,0.005 nM,,,
CCCCCCCCCCCCCCCCC(CC(=O)NCCC(=O)NCCCC[C@H](NC(=O)[C@H](CO)NC(=O)[C@@H]1CCCN1C(=O)[C@@H]1CCCN1C(=O)[C@@H]1CCCN1C(=O)[C@H](C)NC(=O)CNC(=O)[C@H](CO)NC(=O)[C@H](CO)NC(=O)[C@@H]1CCCN1C(=O)CNC(=O)CNC(=O)[C@H](C)NC(=O)[C@H](CC(C)C)NC(=O)[C@H](CC(C)C)NC(=O)[C@H](Cc1c[nH]c2ccccc12)NC(=O)[C@H](CC(N)=O)NC(=O)[C@@H](NC(=O)[C@H](Cc1ccccc1)NC(=O)[C@H](CCC(=O)O)NC(=O)C(C)(C)NC(=O)[C@H](C)NC(=O)[C@H](C)NC(=O)[C@H](CCC(N)=O)NC(=O)[C@H](CCCCN)NC(=O)[C@H](CC(=O)O)NC(=O)[C@H](CC(C)C)NC(=O)[C@H](Cc1ccc(O)cc1)NC(=O)[C@@H](NC(=O)[C@H](CO)NC(=O)[C@H](Cc1ccc(O)cc1)NC(=O)[C@H](CC(=O)O)NC(=O)[C@H](CO)NC(=O)[C@@H](NC(=O)[C@H](Cc1ccccc1)NC(=O)[C@@H](NC(=O)CNC(=O)[C@H](CCC(=O)O)NC(=O)C(C)(C)NC(=O)[C@@H](N)Cc1ccc(O)cc1)[C@@H](C)O)[C@@H](C)O)[C@@H](C)CC)C(C)C)C(=O)NCC(N)=O)C(=O)O (stereo partly drawn) [SEQ ID NO: 141],0.002 nM,0.001 nM,,,
CCCCCCCCCCCCCCCC(=O)N[C@@H](CCC(=O)N[C@@H](CCC(=O)NCCCC[C@H](NC(=O)[C@H](CC(=O)O)NC(=O)[C@H](CO)NC(=O)[C@@H](NC(=O)[C@H](Cc1ccccc1)NC(=O)[C@@H](NC(=O)CNC(=O)[C@H](CCC(N)=O)NC(=O)C(C)(C)NC(=O)[C@@H](N)Cc1ccc(O)cc1)[C@@H](C)O)[C@@H](C)O)C(=O)N[C@@H](CO)C(=O)N[C@H](C(=O)N[C@@H](Cc1ccc(O)cc1)C(=O)N[C@@H](CC(C)C)C(=O)N[C@@H](CC(=O)O)C(=O)N[C@@H](CCCCN)C(=O)N[C@@H](CCC(N)=O)C(=O)N[C@@H](C)C(=O)N[C@@H](C)C(=O)NC(C)(C)C(=O)N[C@@H](CCC(=O)O)C(=O)N[C@@H](Cc1ccccc1)C(=O)N[C@H](C(=O)N[C@@H](CC(N)=O)C(=O)N[C@@H](Cc1c[nH]c2ccccc12)C(=O)N[C@@H](CC(C)C)C(=O)N[C@@H](CC(C)C)C(=O)N[C@@H](CC(=O)O)C(=O)N[C@H](C(N)=O)[C@@H](C)O)C(C)C)[C@@H](C)CC)C(=O)O)C(=O)O [compound 92] (H-Y[Aib]QGTFTSDK([γGlu-γGlu-Palmitoyl])SIYLDKQAA[Aib]EFVNWLLDT-NH2; N-terminus assumed),,,,,"EC50 ([1]; Table 7, Example 13): 0.021 nM; EC50 ([2]; Table 7, Example 13): 0.0031 nM"
CC[C@H](C)[C@H](NC(=O)[C@H](CO)NC(=O)[C@H](Cc1ccc(O)cc1)NC(=O)[C@H](CC(=O)O)NC(=O)[C@H](CO)NC(=O)[C@@H](NC(=O)[C@H](Cc1ccccc1)NC(=O)[C@@H](NC(=O)CNC(=O)[C@H](CCC(N)=O)NC(=O)C(C)(C)NC(=O)[C@@H](N)Cc1ccc(O)cc1)[C@@H](C)O)[C@@H](C)O)C(=O)N[C@@H](Cc1ccc(O)cc1)C(=O)N[C@@H](CC(C)C)C(=O)N[C@@H](CC(=O)O)C(=O)N[C@@H](CCCCN)C(=O)N[C@H]1CCC(=O)NCCCC[C@@H](C(=O)N[C@@H](Cc2ccccc2)C(=O)N[C@H](C(=O)N[C@@H](CC(N)=O)C(=O)N[C@@H](Cc2c[nH]c3ccccc23)C(=O)N[C@@H](CC(C)C)C(=O)N[C@@H](CC(C)C)C(=O)N[C@@H](C)C(=O)NCC(=O)NCC(=O)N2CCC[C@H]2C(=O)N[C@@H](CO)C(=O)N[C@@H](CO)C(=O)NCC(=O)N[C@@H](C)C(=O)N2CCC[C@H]2C(=O)N2CCC[C@H]2C(=O)N2CCC[C@H]2C(=O)N[C@@H](CO)C(=O)N[C@@H](CS)C(N)=O)C(C)C)NC(=O)C(C)(C)NC(=O)[C@H](C)NC(=O)[C@H](C)NC1=O [compound 58] (H-Y[Aib]QGTFTSDYSIYLDKEAA[Aib]KFVNWLLAGGPSSGAPPPSC-NH2; lactam 17-21),,,,,"EC50 ([1]; Table 6, Example 12): 0.005 nM; EC50 ([2]; Table 6, Example 12): 0.014 nM"
CCCCCCCCCCCCCCCC(=O)N[C@@H](CCC(=O)NCCCC[C@H](NC(=O)[C@H](CC(=O)O)NC(=O)[C@H](CO)NC(=O)[C@@H](NC(=O)[C@H](Cc1ccccc1)NC(=O)[C@@H](NC(=O)CNC(=O)[C@H](CCC(=O)O)NC(=O)C(C)(C)NC(=O)[C@@H](N)Cc1c[nH]cn1)[C@@H](C)O)[C@@H](C)O)C(=O)N[C@@H](CO)C(=O)N[C@@H](CCCCN)C(=O)N[C@@H](Cc1ccc(O)cc1)C(=O)N[C@@H](CC(C)C)C(=O)N[C@@H](CC(=O)O)C(=O)N[C@@H](CCC(=O)O)C(=O)N[C@@H](CCCNC(=N)N)C(=O)N[C@@H](CCCNC(=N)N)C(=O)N[C@@H](C)C(=O)NC(C)(C)C(=O)N[C@@H](CCC(=O)O)C(=O)N[C@@H](Cc1ccccc1)C(=O)N[C@H](C(=O)N[C@@H](CCC(N)=O)C(=O)N[C@@H](Cc1c[nH]c2ccccc12)C(=O)N[C@@H](CC(C)C)C(=O)N[C@@H](CC(C)C)C(=O)N[C@@H](CC(=O)O)C(=O)N[C@H](C(N)=O)[C@@H](C)O)C(C)C)C(=O)O [compound 40] (H-H[Aib]EGTFTSDK([γGlu-Palmitoyl])SKYLDERRA[Aib]EFVQWLLDT-NH2; N-terminus assumed),,,0.024 nM,0.006 nM,
CCCCCCCCCCCCCCCC(=O)N[C@@H](CCC(=O)NCCCC[C@H](NC(=O)[C@H](CC(=O)O)NC(=O)[C@H](CO)NC(=O)[C@@H](NC(=O)[C@H](Cc1ccccc1)NC(=O)[C@@H](NC(=O)CNC(=O)[C@H](CCC(=O)O)NC(=O)C(C)(C)NC(=O)[C@@H](N)Cc1c[nH]cn1)[C@@H](C)O)[C@@H](C)O)C(=O)N[C@@H](CO)C(=O)N[C@@H](CCCCN)C(=O)N[C@@H](Cc1ccc(O)cc1)C(=O)N[C@@H](CC(C)C)C(=O)N[C@@H](CC(=O)O)C(=O)N[C@@H](CCC(=O)O)C(=O)N[C@@H](CCCNC(=N)N)C(=O)N[C@@H](CCCNC(=N)N)C(=O)N[C@@H](C)C(=O)NC(C)(C)C(=O)N[C@@H](CC(=O)O)C(=O)N[C@@H](Cc1ccccc1)C(=O)N[C@H](C(=O)N[C@@H](CCC(N)=O)C(=O)N[C@@H](Cc1c[nH]c2ccccc12)C(=O)N[C@@H](CC(C)C)C(=O)N[C@@H](CC(C)C)C(=O)N[C@@H](CC(=O)O)C(=O)NCC(=O)NCC(=O)N1CCC[C@H]1C(=O)N[C@@H](CO)C(=O)N[C@@H](CO)C(=O)NCC(=O)N[C@@H](C)C(=O)N1CCC[C@H]1C(=O)N1CCC[C@H]1C(=O)N1CCC[C@H]1C(=O)N[C@@H](CO)C(N)=O)C(C)C)C(=O)O [compound 41] (H-H[Aib]EGTFTSDK([γGlu-Palmitoyl])SKYLDERRA[Aib]DFVQWLLDGGPSSGAPPPS-NH2),,,0.013 nM,0.006 nM,
